Test results reported in PMC12028158, “Synthesis and In Vitro Evaluation of the Anticancer Effect of Novel Phosphonium Vindoline Derivatives” (International Journal of Molecular Sciences, 2025).
Read-outs that look alike come from different tables or passages of the source.

Experiments:
Type in all cases: cell-based
[1] = system: SR; assay: NCI60 five-dose screen; settings: Homo sapiens
[2] = system: A549/ATCC; assay: NCI60 five-dose screen; settings: Homo sapiens
[3] = system: HOP-92; assay: NCI60 five-dose screen; settings: Homo sapiens
[4] = system: NCI-H226; assay: NCI60 five-dose screen; settings: Homo sapiens
[5] = system: HCC-2998; assay: NCI60 five-dose screen; settings: Homo sapiens
[6] = system: HT29; assay: NCI60 five-dose screen; settings: Homo sapiens, HT-29
[7] = system: SF-268; assay: NCI60 five-dose screen; settings: Homo sapiens
[8] = system: SNB-19; assay: NCI60 five-dose screen; settings: Homo sapiens
[9] = system: MDA-MB-435; assay: NCI60 five-dose screen; settings: Homo sapiens
[10] = system: SK-MEL-5; assay: NCI60 five-dose screen; settings: Homo sapiens
[11] = system: IGROV1; assay: NCI60 five-dose screen; settings: Homo sapiens, IGROV-1
[12] = system: CAKI-1; assay: NCI60 five-dose screen; settings: Homo sapiens
[13] = system: SN12C; assay: NCI60 five-dose screen; settings: Homo sapiens
[14] = system: HS 578T; assay: NCI60 five-dose screen; settings: Homo sapiens
[15] = system: T-47D; assay: NCI60 five-dose screen; settings: Homo sapiens, T47D
[16] = system: Leukemia panel; assay: NCI60 five-dose screen, panel mean; settings: Homo sapiens, read-out: GI50 Mean
[17] = system: Colon Cancer panel; assay: NCI60 five-dose screen, panel mean; settings: Homo sapiens, read-out: GI50 Mean
[18] = system: CNS Cancer panel; assay: NCI60 five-dose screen, panel mean; settings: Homo sapiens, read-out: GI50 Mean
[19] = system: Breast Cancer panel; assay: NCI60 five-dose screen, panel mean; settings: Homo sapiens, read-out: GI50 Mean
[20] = system: 60 human tumor cell lines (NCI60); assay: NCI60 five-dose screen, overall mean
[21] = system: HL-60(TB); assay: NCI60 one-dose screen; settings: Homo sapiens
[22] = system: MOLT-4; assay: NCI60 one-dose screen; settings: Homo sapiens
[23] = system: HOP-62; assay: NCI60 one-dose screen; settings: Homo sapiens
[24] = system: HOP-92; assay: NCI60 one-dose screen; settings: Homo sapiens
[25] = system: NCI-H226; assay: NCI60 one-dose screen; settings: Homo sapiens
[26] = system: SF-295; assay: NCI60 one-dose screen; settings: Homo sapiens
[27] = system: U251; assay: NCI60 one-dose screen; settings: Homo sapiens
[28] = system: SK-MEL-2; assay: NCI60 one-dose screen; settings: Homo sapiens
[29] = system: UACC-257; assay: NCI60 one-dose screen; settings: Homo sapiens
[30] = system: OVCAR-8; assay: NCI60 one-dose screen; settings: Homo sapiens
[31] = system: ACHN; assay: NCI60 one-dose screen; settings: Homo sapiens, read-out: Growth percent
[32] = system: CAKI-1; assay: NCI60 one-dose screen; settings: Homo sapiens
[33] = system: MCF7; assay: NCI60 one-dose screen; settings: Homo sapiens
[34] = system: BT-549; assay: NCI60 one-dose screen; settings: Homo sapiens

What does the source list for `CC[C@]12C=CCN3CC[C@@]4(c5ccc(OC)cc5N(C)[C@H]4[C@@](O)(C(=O)OC)[C@@H]1OC(=O)CCCC[P+](c1ccc(F)cc1)(c1ccc(F)cc1)c1ccc(F)cc1)[C@@H]32` [10c]?
GI50 ([1]; Leukemia, read-out: GI50): 14.5 µM; GI50 ([2]; A549/ATCC, Non-small Cell Lung Cancer, read-out: GI50): 33.8 µM; GI50 ([3]; HOP-92, Non-small Cell Lung Cancer, read-out: GI50): 6.32 µM; GI50 ([4]; NCI-H226, Non-small Cell Lung Cancer, read-out: GI50): 27.3 µM; GI50 ([5]; HCC-2998, Colon Cancer, read-out: GI50): 12.5 µM; GI50 ([6]; HT29, Colon Cancer, read-out: GI50): 15.4 µM; GI50 ([7]; SF-268, CNS Cancer, read-out: GI50): 17.6 µM; GI50 ([8]; SNB-19, SNB-19, CNS Cancer, read-out: GI50): 13 µM; GI50 ([9]; MDA-MB-435, Melanoma, read-out: GI50): 12.9 µM; GI50 ([10]; SK-MEL-5, Melanoma, read-out: GI50): 17.1 µM; GI50 ([11]; IGROV1, Ovarian Cancer, read-out: GI50): 10.8 µM; GI50 ([12]; CAKI-1, Renal Cancer, read-out: GI50): > 100 µM; GI50 ([13]; Renal Cancer, read-out: GI50): 28.6 µM; GI50 ([14]; HS 578T, Breast Cancer, read-out: GI50): 16.9 µM; GI50 ([15]; T-47D, Breast Cancer, read-out: GI50): 11.5 µM; GI50 ([16]; mean over Leukemia panel): 9.86 µM; GI50 ([17]; mean over Colon Cancer panel): 26.9 µM; GI50 ([18]; mean over CNS Cancer panel): 18.8 µM; GI50 ([19]; mean over Breast Cancer panel): 11.1 µM; GI50 ([20]; mean over all 60 human cancer cell lines, read-out: GI50 Mean): 24.9 µM; activity at 10 µM ([21]; HL-60(TB), 10 μM, one-dose, read-out: Growth percent): -32.2%; activity at 10 µM ([22]; MOLT-4, 10 μM, one-dose, read-out: Growth percent): 29.1%; activity at 10 µM ([23]; HOP-62, 10 μM, one-dose, read-out: Growth percent): 51%; activity at 10 µM ([24]; HOP-92, 10 μM, one-dose, read-out: Growth percent): -12.2%; activity at 10 µM ([25]; NCI-H226, 10 μM, one-dose, read-out: Growth percent): 38%; activity at 10 µM ([26]; SF-295, 10 μM, one-dose, read-out: Growth percent): 78.5%; activity at 10 µM ([27]; U-251, U251, 10 μM, one-dose, read-out: Growth percent): 13%; activity at 10 µM ([28]; SK-MEL-2, 10 μM, one-dose, read-out: Growth percent): -54%; activity at 10 µM ([29]; UACC-257, 10 μM, one-dose, read-out: Growth percent): -50.7%; activity at 10 µM ([30]; OVCAR-8, 10 μM, one-dose, read-out: Growth percent): 20%; activity at 10 µM ([31]; 10 μM, one-dose): 103%; activity at 10 µM ([32]; CAKI-1, 10 μM, one-dose, read-out: Growth percent): 73.2%; activity at 10 µM ([33]; MCF7, 10 μM, one-dose, read-out: Growth percent): 5.18%; activity at 10 µM ([34]; BT-549, 10 μM, one-dose, read-out: Growth percent): -23.5%

Which GI50 [1] does the source give for `CC[C@]12C=CCN3CC[C@@]4(c5ccc(OC)cc5N(C)[C@H]4[C@@](O)(C(=O)OC)[C@@H]1OC(=O)CCCC[P+](c1ccc(C)cc1)(c1ccc(C)cc1)c1ccc(C)cc1)[C@@H]32` [10a] here?
The GI50 was 0.36 µM.

And the GI50 ([2]; A549)?
The GI50 was 0.819 µM.

And the GI50 ([3]; HOP-92)?
The GI50 was 0.49 µM.

And the GI50 ([4]; NCI-H226)?
The GI50 was 1.43 µM.

What about the GI50 ([5]; HCC 2998) of the same molecule?
Its GI50 is 0.52 µM.

And the GI50 [6]?
The GI50 was 0.358 µM.

What about the GI50 ([7]; SF-268) of the same molecule?
Its GI50 is 1.17 µM.

What about the GI50 ([8]; SNB-19) of the same molecule?
The GI50 was 0.96 µM.

What about the GI50 ([9]; MDA-MB-435) of the same molecule?
The GI50 was 0.678 µM.

What about the GI50 ([10]; SK-MEL-5) of the same molecule?
Its GI50 is 1.57 µM.

What about the GI50 [11] of the same molecule?
The GI50 was 0.479 µM.

What about the GI50 ([12]; CAKI-1) of the same molecule?
Its GI50 is 7.46 µM.

And the GI50 [13]?
Its GI50 is 0.619 µM.

And the GI50 ([14]; Hs-578T)?
Its GI50 is 1.2 µM.

And the GI50 [15]?
Its GI50 is 0.37 µM.

And the GI50 [16]?
The GI50 was 0.48 µM.

And the GI50 [17]?
Its GI50 is 0.72 µM.

And the GI50 [18]?
Its GI50 is 1.09 µM.

And the GI50 [19]?
Its GI50 is 0.58 µM.

And the GI50 ([20]; 60 cell, read-out: Mean GI50, mean over all 60 cell lines)?
Its GI50 is less than 3 µM.

What about the GI50 ([20]; read-out: GI50 Mean, mean over all 60 human cancer cell lines) of the same molecule?
Its GI50 is 1.23 µM.

What about the activity at 10 µM ([21]; HL-60, read-out: Growth percent) of the same molecule?
The activity at 10 µM was -42.2%.

And the activity at 10 µM ([22]; MOLT-4, read-out: Growth percent)?
The activity at 10 µM was -25%.

What about the activity at 10 µM ([23]; HOP-62, read-out: Growth percent) of the same molecule?
Its activity at 10 µM is -84%.

What about the activity at 10 µM ([24]; HOP-92, read-out: Growth percent) of the same molecule?
Its activity at 10 µM is -77.9%.

What about the activity at 10 µM ([25]; NCI-H226, read-out: Growth percent) of the same molecule?
Its activity at 10 µM is -78.6%.

What about the activity at 10 µM ([26]; SF-295, read-out: Growth percent) of the same molecule?
The activity at 10 µM was -91.8%.

What about the activity at 10 µM ([27]; U-251, read-out: Growth percent) of the same molecule?
The activity at 10 µM was -93.6%.

What about the activity at 10 µM ([28]; SK-MEL-2, read-out: Growth percent) of the same molecule?
Its activity at 10 µM is -87.2%.

What about the activity at 10 µM ([29]; UACC-257, read-out: Growth percent) of the same molecule?
The activity at 10 µM was -95%.

And the activity at 10 µM ([30]; OVCAR-8, read-out: Growth percent)?
Its activity at 10 µM is -86.6%.

What about the activity at 10 µM [31] of the same molecule?
Its activity at 10 µM is -99.3%.

And the activity at 10 µM ([32]; CAKI-1, read-out: Growth percent)?
The activity at 10 µM was -95.2%.

What about the activity at 10 µM ([33]; MCF7, read-out: Growth percent) of the same molecule?
Its activity at 10 µM is -81.2%.

What about the activity at 10 µM ([34]; BT-549, read-out: Growth percent) of the same molecule?
Its activity at 10 µM is -97%.
